Laboratory results published in ChEMBL document CHEMBL4732045, “Amide Bond Bioisosteres: Strategies, Synthesis, and Successes” (J Med Chem, 2020).
pIC50, pKi: −log10 of the molar value. One block for each molecule: values may come before it. Square brackets hold non-standard residues; d marks the D form. Peptide text beside a SMILES is read from it. PhLac = O=C(O)[C@@H](O)Cc1ccccc1

Columns and labels:
[1] = target: D(2) dopamine receptor (Bos taurus) (UniProt P20288); assay: Modulation of [3H]Spiroperidol/N-Propylnorapomorphine binding to dopamine D2 receptor in bovine striatal membranes incubated for 1 hr in presence of Gpp(NH)p by Cheng-Prusoff analysis; assay type: cell membranes; settings: Striatum, Membrane, filed as modulator
Chain of D(2) dopamine receptor (Bos taurus) (P20288 whole entry): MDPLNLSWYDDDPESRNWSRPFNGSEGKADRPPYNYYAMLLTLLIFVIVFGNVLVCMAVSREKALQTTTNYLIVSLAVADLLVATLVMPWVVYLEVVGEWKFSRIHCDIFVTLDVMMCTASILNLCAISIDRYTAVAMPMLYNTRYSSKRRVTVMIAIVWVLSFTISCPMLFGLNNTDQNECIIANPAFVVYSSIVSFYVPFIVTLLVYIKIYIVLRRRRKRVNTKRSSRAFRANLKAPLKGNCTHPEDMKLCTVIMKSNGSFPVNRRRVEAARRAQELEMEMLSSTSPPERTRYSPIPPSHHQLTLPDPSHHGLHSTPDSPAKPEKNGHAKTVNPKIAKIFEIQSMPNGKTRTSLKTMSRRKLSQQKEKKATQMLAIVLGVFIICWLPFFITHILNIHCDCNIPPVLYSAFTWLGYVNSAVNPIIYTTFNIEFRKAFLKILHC

[2] = target: D(2) dopamine receptor (Bos taurus) (UniProt P20288); assay: Modulation of [3H]Spiroperidol/N-Propylnorapomorphine binding to dopamine D2 receptor in bovine striatal membranes incubated for 1 hr by Cheng-Prusoff analysis; assay type: cell membranes; settings: Striatum, Membrane, filed as modulator
[3] = target: Delta-type opioid receptor (Mus musculus, UniProt P32300); assay: Inhibition of [3H]-Deltorphin 2 binding to mouse delta opioid receptor expressed in rat GH3 cell membranes by Cheng-Prusoff analysis; design: species or system Cell membrane
Chain of Delta-type opioid receptor (P32300 whole entry): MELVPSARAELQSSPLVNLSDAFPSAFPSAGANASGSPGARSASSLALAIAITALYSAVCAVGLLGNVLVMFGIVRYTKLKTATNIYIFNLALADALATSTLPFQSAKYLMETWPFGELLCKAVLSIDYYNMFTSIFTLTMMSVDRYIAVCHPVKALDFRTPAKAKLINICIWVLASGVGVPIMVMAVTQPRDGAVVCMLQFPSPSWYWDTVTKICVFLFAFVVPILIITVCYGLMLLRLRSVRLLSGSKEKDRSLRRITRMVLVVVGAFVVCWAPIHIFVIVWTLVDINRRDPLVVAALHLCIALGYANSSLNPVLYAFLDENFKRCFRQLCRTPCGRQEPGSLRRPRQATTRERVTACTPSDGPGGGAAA

[4] = Inhibition of HIV2 protease; design: species or system Human immunodeficiency virus 2
[5] = tested on: Human immunodeficiency virus 1; assay: Antiviral activity against HIV1 3b isolate infected in human MT4 cells assessed as blockade of viral spread pretreated for 24 hrs followed by viral infection and subsequently treated with compound every 2 to 3 days post infection by ELISA; assay type: functional; settings: Human immunodeficiency virus 1, 3b isolate, read-out: CIC95
[6] = target: T1, Human immunodeficiency virus type 1 protease (Human immunodeficiency virus 1, UniProt Q72874); assay: Inhibition of HIV1 protease
Cannabinoid receptor 2 = Cannabinoid receptor 2 (Homo sapiens, UniProt P34972); assay: Displacement of [3H]CP-55940 from human CB2 receptor expressed in HEK cells by competitive binding assay; assay type: cell-based
Chain of Cannabinoid receptor 2 (P34972 whole entry): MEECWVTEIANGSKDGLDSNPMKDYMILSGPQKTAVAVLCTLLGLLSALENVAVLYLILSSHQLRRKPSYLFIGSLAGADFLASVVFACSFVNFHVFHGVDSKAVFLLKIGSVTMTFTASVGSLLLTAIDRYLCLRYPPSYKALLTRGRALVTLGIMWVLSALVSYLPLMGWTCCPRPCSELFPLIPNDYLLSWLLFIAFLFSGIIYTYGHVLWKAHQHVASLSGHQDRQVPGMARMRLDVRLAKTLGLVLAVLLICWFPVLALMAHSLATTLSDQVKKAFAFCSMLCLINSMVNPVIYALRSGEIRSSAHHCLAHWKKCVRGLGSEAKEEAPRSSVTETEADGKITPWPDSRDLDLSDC

Cannabinoid receptor 1 = Cannabinoid receptor 1 (Homo sapiens, UniProt P21554); assay: Displacement of [3H]CP-55940 from human CB1 receptor expressed in HEK cells by competitive binding assay; assay type: cell-based
Chain of Cannabinoid receptor 1 (P21554 whole entry): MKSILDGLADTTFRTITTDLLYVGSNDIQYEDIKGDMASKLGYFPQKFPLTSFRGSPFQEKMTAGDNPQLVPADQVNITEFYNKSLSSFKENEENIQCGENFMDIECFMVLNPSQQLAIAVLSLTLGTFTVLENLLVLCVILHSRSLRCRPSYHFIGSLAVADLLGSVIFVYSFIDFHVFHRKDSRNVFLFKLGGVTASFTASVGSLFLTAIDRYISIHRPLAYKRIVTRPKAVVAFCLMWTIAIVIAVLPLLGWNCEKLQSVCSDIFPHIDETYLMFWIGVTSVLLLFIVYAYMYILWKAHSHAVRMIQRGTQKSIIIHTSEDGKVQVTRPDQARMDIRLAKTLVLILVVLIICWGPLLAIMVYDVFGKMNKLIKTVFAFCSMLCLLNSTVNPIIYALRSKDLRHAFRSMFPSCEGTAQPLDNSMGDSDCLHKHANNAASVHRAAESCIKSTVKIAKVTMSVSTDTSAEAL

[7] = Selectivity index, ratio of Ki for human CB1 receptor expressed in HEK cells to Ki for human CB2 receptor expressed in HEK cells
Rattus norvegicus = assay: Immunosuppressive activity in Lewis rat model of Heart Allotransplantation assessed as mean survival days at 6 mg/kg, ip administered for 10 days by Manntel-Haenszel test; assay type: functional; settings: time 10 day
Mus musculus [8] = assay: Immunosuppressive activity in B6D2F1 mouse model of graft-versus-host disease assessed as mean survival days at 1 mg/kg, ip administered for day 1 to day 10 (day 6 omitted) and measured at day 60; assay type: functional; settings: time 60 day
Mus musculus [9] = assay: Immunosuppressive activity in B6D2F1 mouse model of graft-versus-host disease assessed as mean survival days at 3 mg/kg, ip administered for day 1 to day 10 (day 6 omitted) and measured at day 60; assay type: functional; settings: time 60 day
MDA-MB-231 = assay: Antiproliferative activity against human MDA-MB-231 cells; assay type: functional, cell-based
Integrin alpha-4/beta-1 = Integrin alpha-4/beta-1 (Homo sapiens, UniProt P05556+P13612); assay: Displacement of 125I-VCAM-Ig from VLA4 in human Jurkat cells incubated for 30 mins by scintillation counting method; assay type: cell-based
Chain of Integrin alpha-4/beta-1 (P05556 whole entry): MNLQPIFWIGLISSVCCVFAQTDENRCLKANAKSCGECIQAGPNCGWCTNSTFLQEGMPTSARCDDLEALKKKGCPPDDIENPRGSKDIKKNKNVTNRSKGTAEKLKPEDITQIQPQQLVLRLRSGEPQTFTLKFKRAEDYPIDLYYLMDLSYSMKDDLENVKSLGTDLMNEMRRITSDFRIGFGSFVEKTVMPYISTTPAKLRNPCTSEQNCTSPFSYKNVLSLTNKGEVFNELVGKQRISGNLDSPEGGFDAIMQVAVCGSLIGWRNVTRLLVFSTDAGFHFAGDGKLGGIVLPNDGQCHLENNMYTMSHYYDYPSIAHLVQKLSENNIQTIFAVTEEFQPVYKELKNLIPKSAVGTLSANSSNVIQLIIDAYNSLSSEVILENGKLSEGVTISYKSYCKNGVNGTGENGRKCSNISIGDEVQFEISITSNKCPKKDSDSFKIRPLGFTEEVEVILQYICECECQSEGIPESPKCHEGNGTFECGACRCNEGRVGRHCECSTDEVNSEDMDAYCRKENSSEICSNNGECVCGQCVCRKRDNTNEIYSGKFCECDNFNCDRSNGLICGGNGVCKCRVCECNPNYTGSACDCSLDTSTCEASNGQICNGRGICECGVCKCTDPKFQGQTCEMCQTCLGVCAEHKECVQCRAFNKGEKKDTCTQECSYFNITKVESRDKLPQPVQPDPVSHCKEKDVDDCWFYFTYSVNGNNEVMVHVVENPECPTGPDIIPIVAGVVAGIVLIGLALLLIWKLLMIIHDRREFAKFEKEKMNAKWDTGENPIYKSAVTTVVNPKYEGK
Chain of Integrin alpha-4/beta-1 (P13612 whole entry): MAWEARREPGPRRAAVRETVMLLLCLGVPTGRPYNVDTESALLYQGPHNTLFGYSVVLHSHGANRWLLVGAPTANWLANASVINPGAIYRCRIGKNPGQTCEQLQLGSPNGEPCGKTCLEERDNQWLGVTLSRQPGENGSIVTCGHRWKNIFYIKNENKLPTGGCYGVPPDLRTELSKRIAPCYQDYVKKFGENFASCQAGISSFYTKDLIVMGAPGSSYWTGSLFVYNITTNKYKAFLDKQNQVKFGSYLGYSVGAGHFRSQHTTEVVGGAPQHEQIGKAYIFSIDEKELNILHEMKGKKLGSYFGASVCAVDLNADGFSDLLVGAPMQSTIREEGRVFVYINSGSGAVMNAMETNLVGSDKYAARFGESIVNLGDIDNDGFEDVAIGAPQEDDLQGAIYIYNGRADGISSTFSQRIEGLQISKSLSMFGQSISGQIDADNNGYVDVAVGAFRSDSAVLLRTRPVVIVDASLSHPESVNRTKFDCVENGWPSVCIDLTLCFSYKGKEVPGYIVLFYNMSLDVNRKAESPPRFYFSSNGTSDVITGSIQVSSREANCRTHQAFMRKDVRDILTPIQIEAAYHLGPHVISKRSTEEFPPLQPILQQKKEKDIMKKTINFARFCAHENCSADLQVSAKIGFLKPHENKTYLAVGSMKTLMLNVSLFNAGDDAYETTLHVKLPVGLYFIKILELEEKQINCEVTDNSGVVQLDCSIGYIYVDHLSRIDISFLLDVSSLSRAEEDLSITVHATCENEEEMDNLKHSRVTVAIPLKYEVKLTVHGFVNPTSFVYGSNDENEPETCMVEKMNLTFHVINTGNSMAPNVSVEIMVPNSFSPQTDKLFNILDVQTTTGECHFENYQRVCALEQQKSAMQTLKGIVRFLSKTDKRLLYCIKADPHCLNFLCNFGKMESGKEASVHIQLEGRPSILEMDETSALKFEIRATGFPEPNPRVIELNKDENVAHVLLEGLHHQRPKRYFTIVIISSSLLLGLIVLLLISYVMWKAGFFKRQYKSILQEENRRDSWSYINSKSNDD

[10] = Inhibition of ACAT in cholesterol-fed New Zealand rabbit intestional microsomes using [1-14C]oleoyl-CoA as substrate preincubated for 5 mins followed by substrate addition and measured after 5 mins by liquid scintillation counting method; design: species or system Oryctolagus cuniculus, Intestine, Microsome
Neprilysin = Neprilysin (Homo sapiens, UniProt P08473); assay: Inhibition of NEP 24.11 (unknown origin) by fluorometric assay
Chain of Neprilysin (P08473 whole entry): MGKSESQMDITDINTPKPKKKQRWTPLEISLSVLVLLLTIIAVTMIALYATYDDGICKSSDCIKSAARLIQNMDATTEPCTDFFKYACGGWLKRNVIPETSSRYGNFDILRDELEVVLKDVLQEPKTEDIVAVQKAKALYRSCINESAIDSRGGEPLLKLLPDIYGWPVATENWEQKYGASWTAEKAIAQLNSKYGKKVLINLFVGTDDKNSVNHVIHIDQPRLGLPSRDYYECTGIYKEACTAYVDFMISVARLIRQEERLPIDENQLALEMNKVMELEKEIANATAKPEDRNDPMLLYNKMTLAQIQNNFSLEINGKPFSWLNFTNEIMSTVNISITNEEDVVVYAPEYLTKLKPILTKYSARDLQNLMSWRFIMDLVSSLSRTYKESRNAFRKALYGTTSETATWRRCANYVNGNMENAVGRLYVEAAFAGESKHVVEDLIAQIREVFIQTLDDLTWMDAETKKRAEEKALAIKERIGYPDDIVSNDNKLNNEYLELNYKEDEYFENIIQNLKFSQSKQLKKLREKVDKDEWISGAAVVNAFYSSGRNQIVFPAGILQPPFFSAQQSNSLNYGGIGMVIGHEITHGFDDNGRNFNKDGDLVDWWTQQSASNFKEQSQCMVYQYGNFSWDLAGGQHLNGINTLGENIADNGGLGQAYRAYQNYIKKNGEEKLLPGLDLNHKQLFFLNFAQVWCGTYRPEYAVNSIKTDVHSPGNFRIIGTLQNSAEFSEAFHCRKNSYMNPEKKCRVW

HeLa = assay: Cytotoxicity against human HeLa cells incubated for 96 hrs by MTT assay; assay type: functional, cell-based
CAKI-2 = assay: Cytotoxicity against human Caki-2 cells incubated for 96 hrs by MTT assay; assay type: functional, cell-based; settings: CAKI-2, 96 h
PC-3 = assay: Cytotoxicity activity against human PC-3 cells incubated for 96 hrs by MTT method; assay type: functional, cell-based; settings: PC-3, 96 h
A549 = assay: Cytotoxicity against human A549 cells incubated for 96 hrs by MTT assay; assay type: functional, cell-based; settings: A549, 96 h
HL-60 = assay: Cytotoxicity activity against human HL-60 cells incubated for 96 hrs by MTT assay; assay type: functional, cell-based; settings: HL-60, 96 h
[11] = tested on: Poly(dA-dT)oligonucleotide; assay: Binding affinity to poly (dA-dT) (unknown origin) by ethidium displacement assay; assay type: nucleic-acid assay
[12] = tested on: Poly(dG-dC)oligonucleotide; assay: Binding affinity to poly (dG-dC) (unknown origin) by ethidium displacement assay; assay type: nucleic-acid assay
[13] = target: T1, Human immunodeficiency virus type 1 protease; assay: Inhibition of HIV-1 protease
[14] = Oral bioavailability in monkey at 10 mg/kg; assay type: ADME, organism-based, Macaca mulatta; settings: rhesus monkey, in vivo
[15] = Half life in monkey at 10 mg/kg, po; assay type: ADME, organism-based, Macaca mulatta; settings: rhesus monkey, in vivo

SMILES: CC(C)C[C@@H](C(=O)NCC(N)=O)N1CC(=O)N2CCC[C@H]2C1=O
KiH [1]: 0.12 nM
KiL [1]: 172 nM
KiH [2]: 0.08 nM
KiL [2]: 120 nM

SMILES: CC(C)C[C@H](NC(=O)[C@H](Cc1ccccc1)OC(=O)CNC(=O)CNC(=O)[C@@H](N)Cc1ccc(O)cc1)C(=O)O (H-YGG[PhLac]L-OH)
pKi [3]: 7.47

SMILES: CC(C)(C)NC(=O)[C@@H]1C[C@@H]2CCCC[C@@H]2CN1C[C@@H](O)[C@H](Cc1ccccc1)NC(=O)OC(C)(C)C
pIC50 [6]: ≤ 5.52

SMILES: CC(C)C[C@H](NC(=O)[C@H](Cc1ccccc1)NC(=S)CNC(=O)CNC(=O)[C@@H](N)Cc1ccc(O)cc1)C(=O)O
pKi [3]: 7.33

SMILES: CCCCCn1cc(-c2nnc(C34CC5CC(CC(C5)C3)C4)o2)c(=O)c2cc(-c3ccco3)ccc21
pKi (Cannabinoid receptor 2): 8.19
pKi (Cannabinoid receptor 1): < 5.00
Ratio Ki [7]: >1543

SMILES: NCCCNCCCCNC(=O)NCC(=O)NCCCCCCN=C(N)N
Survival (Rattus norvegicus): 12 days
Survival (Mus musculus [8]): 42 days
Survival (Mus musculus [9]): 48 days

SMILES: O=C(OCc1ccc2c(c1)OCO2)c1ccc(Cl)c(Cl)c1
pIC50 (MDA-MB-231): ≤ 3.70

SMILES: CCCCCCCCCCCCCCCCCNC(=O)Nc1c(OC)cc(OC)cc1OC
pIC50 [10]: 6.49

SMILES: CCCCCn1cc(-c2cn(C34CC5CC(CC(C5)C3)C4)nn2)c(=O)c2cc(-c3ccco3)ccc21
pKi (Cannabinoid receptor 1): < 5.00

SMILES: CCCCCCCCCCCCCCCCS(=O)(=O)N[C@@H](CO)[C@H](O)/C=C/c1ccc(Cl)cc1
pIC50 (HeLa): 4.19
pIC50 (CAKI-2): 3.99
pIC50 (PC-3): 3.91
pIC50 (A549): 4.02
pIC50 (HL-60): 4.55

SMILES: CC(C)c1cccc(C(C)C)c1NC(=O)NCCCCCc1ccccc1
pIC50 [10]: 7.77

SMILES: N=C(N)NCCCCCCC(=O)NC(O)C(=O)NCCCCNCCCN (stereo unspecified)
Survival (Rattus norvegicus): 38 days
Survival (Mus musculus [8]): 38 days
Survival (Mus musculus [9]): 57 days

SMILES: CC(C)(C)NS(=O)(=O)CC[C@@H]1O[C@@H]1[C@H](Cc1ccccc1)NC(=O)[C@@H](NC(=O)OCc1ccccc1)C(C)(C)S(C)(=O)=O
pIC50 [13]: 7.69

Second part, led by results:

KiH [1]: 0.19 nM
KiL [1]: 50 nM
KiH [2]: 0.08 nM
KiL [2]: 69 nM
SMILES: NC(=O)CN1CC[C@@H](N2CC(=O)N3CCC[C@H]3C2=O)C1=O

pIC50 [4]: 9.30
SMILES: CC(C)(C)NC(=O)[C@@H]1C[C@@H]2CCCC[C@@H]2CN1C[C@@H](O)[C@H](Cc1ccccc1)NC(=O)[C@H](CC(N)=O)NC(=O)c1ccc2ccccc2n1
IC95 [5]: 22 nM

pIC50 (Integrin alpha-4/beta-1): 10.00
SMILES: COc1cccc(OC)c1-c1ccc(C[C@H](N=C(N)[C@@H]2CCN2S(=O)(=O)c2ccccc2)C(=O)O)cc1

pKi (Neprilysin): 6.68
SMILES: O=C(O)CC(=O)N[C@H](CS)Cc1ccccc1

pIC50 [10]: 7.20
SMILES: CC(C)c1cccc(C(C)C)c1NC(=O)NCC1(c2cccc(N(C)C)c2)CCCC1

pKi (Cannabinoid receptor 2): 9.40
pKi (Cannabinoid receptor 1): 7.48
SMILES: CCCCCn1cc(-c2nc(C34CC5CC(CC(C5)C3)C4)no2)c(=O)c2cc(-c3ccco3)ccc21
Ratio Ki [7]: >82

KiH [1]: 0.13 nM
KiL [1]: 60 nM
KiH [2]: 0.09 nM
KiL [2]: 73.2 nM
SMILES: CC(C)C[C@H](NC[C@@H]1CCCN1)C(=O)NCC(N)=O

Kapp [11]: 345 10^5/M
Kapp [12]: 1.3 10^5/M
SMILES: Cn1cc(NC(=O)c2cc(NC(=O)c3cc(NC=O)cn3C)cn2C)cc1C(=O)NCCC(=N)N

bioavailability [14]: 12%
half-life [15]: 20 h
SMILES: C=CC[C@H](C(=O)NO)[C@@H](CC(C)C)C(=O)N[C@@H](Cc1ccccc1)C(=O)c1c[nH]c2ccccc12
